{
  "source": "patent US20230218632A1",
  "about": "“CYCLIC SULFONAMIDE DERIVATIVES AS TRAP1 MODULATORS AND USES THEREOF” (Amathus Therapeutics, Inc., priority 2020, published 2023)",
  "test_system": "mIMCD3 Pkd1 KO cells",
  "assay": "Mouse cell derived cyst assay",
  "format": "cell-based",
  "conditions": "Pkd 1 KO mouse cell derived cyst forming assay; FIG. 6",
  "experimental": "Mouse cell derived cyst assays were performed as described in Booij, Tijmen H et al., SLAS discovery: advancing life sciences R & D vol. 22,8 (2017): 974-984, or as described below.\nMurine inner medullary collecting duct cell line (mIMCD3 Pkd1^-/- cells) • mIMCD3 Pkd1 KO cells were seeded in 384 wells plates in extracellular matrix. • 4 days after seeding, cultures were co-exposed to treatments and stimuli (2.5 µM forskolin); • After 72 h, cultures were fixed, stained for nuclei and actin cytoskeleton and imaged with 4x magnification; and • Image analysis of the 3D stack was done using Ominer™ image analysis software.",
  "data": [
    {"smiles": "O=C(Nc1ccc2c(c1)S(=O)(=O)N(c1ccc(Br)cc1)CCO2)c1cnc(-c2ccccc2)[nH]1", "note": "[Compound 1331, N-(2-(4-bromophenyl)-1,1-dioxido-3,4-dihydro-2H-benzo[b][1,4,5]oxathiazepin-8-yl)-2-phenyl-1H-imidazole-5-carboxamide]", "values": [
      {"measurement": "cyst formation", "value": "preventing cyst formation"}
    ]}
  ]
}
